Holding throughout (format): in vivo, human
The subject of experiment [1] is women with interstitial cystitis. The experiment in a line: 19 patient study of women with interstitial cystitis, intravesical instillation. The procedure:
A 19 patient study of women with interstitial cystitis was conducted for four weeks. Three of the patients were diagnosed as being urinary incontinent. The diagnosis of IC was considered as being mild to severe. Powdered alpha 1-antitrypsin (40 mg) was dissolved in 40 ml of saline solution. The solutions were instilled into the bladder for 20 minutes weekly for four weeks. Cystoscopy was carried out during and after filling the bladder for one minute at a pressure of 80 cm of water under spinal and general anesthesia. Bladder biopsies were carried out during cystoscopy. 24-hour collection for measurement of creatine, methylhistamine and tryptase were taken.
In lieu of the recombinant or natural alpha 1-antitrypsin, the conjugate with PEG may be used.

Experiment [2] deals with patient having scleroderma of the finger. The experiment in a line: salve used daily on a patient having scleroderma of the finger. The procedure:
A salve comprising 1% alpha 1-antitrypsin was prepared with Aquaphor® and 1% water. The salve was used daily on a patient having scleroderma of the finger. The finger was bent and constricted. The skin around the finger was hardened. After a daily application for one month the skin was softer, the finger was more flexible and the bending was less severe.

For experiment [3], the system named is patient with rheumatoid arthritis. The experiment in a line: DMSO solution administered to arthritic knee of a patient with rheumatoid arthritis. The settings on record: 5 percent solution in DMSO, topical on arthritic knee; after one week of treatment. Here is the method: A 5 percent solution of alpha 1-antitrypsin was prepared with DMSO. A patient with rheumatoid arthritis administered the composition to an arthritic knee.

Setting [4] is: 40 mg in 40 ml saline instilled into the bladder for 20 minutes weekly for four weeks, weekly studies.
[5] abbreviates: salve, 1% alpha 1-antitrypsin with Aquaphor and 1% water, daily application for one month.

Take alpha 1-antitrypsin: in experiment [1] (setting [4]), the “creatine, 24-hour collection” value is listed as “decrease”; the “methylhistamine, 24-hour collection” value is on record as “decrease”; the “tryptase, 24-hour collection” value is given as “decrease”. Besides, in experiment [1] (after two weeks of weekly instillation), the lesions by cystoscopy result was “substantial decrease in lesions”. For the same substance, the “continence of the incontinent patients” value in experiment [1] (after two weeks of weekly instillation, three urinary incontinent patients) is recorded as “continent”. Moreover, in experiment [2] (setting [5]), the “bending of the finger” value is “less severe”, the “flexibility of the finger” value is given as “more flexible” and the “skin around the finger” value was “softer”. Besides, the “finger position after the treatment was stopped” value in experiment [2] (within six months after stopping the 1% salve) is recorded as “returned to the bent position”. For the same substance, in experiment [3], the knee flexibility result was “greater flexibility”, the knee pain result is “free of pain” and the knee swelling result is listed as “substantial reduction in swelling”.
